# From patent US9695155B2, “Herbicidal substituted pyrimidinyloxy benzene compounds” (E. I. DU PONT DE NEMOURS AND COMPANY, priority 2013, dated 2017)
# Tests used:
# large (Lg) crabgrass = experiment: Test C preemergence; type: in vivo, Digitaria sanguinalis; settings: for Crabgrass, Large plant response rating: preemergence; for Plant response rating, Crabgrass, Large: Preemergence, 31 g ai/ha, scale 0 to 100, 0 no effect, 100 complete control
# In short: (§1)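 Seeds are planted in blended loam soil and sand and treated preemergence, while seedlings in a peat moss/vermiculite medium receive postemergence sprays at 2 to 18 cm height. All plants stay in the greenhouse for 13 to 15 days before visual comparison with controls on a 0–100 scale.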
# barnyardgrass = experiment: Test C preemergence; type: in vivo, Echinochloa crus-galli; settings: for Barnyardgrass plant response rating: preemergence; for Plant response rating, Barnyardgrass: Preemergence, 31 g ai/ha, scale 0 to 100, 0 no effect, 100 complete control
# In short: as §1
# velvetleaf = experiment: Test C preemergence; type: in vivo, Abutilon theophrasti; settings: for Velvetleaf plant response rating: preemergence; for Plant response rating, Velvetleaf: Preemergence, 31 g ai/ha, scale 0 to 100, 0 no effect, 100 complete control
# In short: as §1
# galium = experiment: Test A postemergence; type: in vivo, Galium aparine; settings: 0 to 100 scale where 0 is no effect and 100 is complete control
# In short: (§2)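 Visual injury scored 0–100 (100 = complete control) against untreated controls about 10 days after treatment in a greenhouse. Test chemicals, formulated with surfactant in non-phytotoxic solvent, were sprayed on soil preemergence or on 2-10 cm, one- to two-leaf plants postemergence.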
# soybean = experiment: Test C preemergence; type: in vivo, Glycine max; settings: for Soybean plant response rating: preemergence; for Plant response rating, Soybean: Preemergence, 31 g ai/ha, scale 0 to 100, 0 no effect, 100 complete control
# In short: as §1
# oilseed rape = experiment: Test C preemergence; type: in vivo, Brassica napus; settings: for Oilseed Rape plant response rating: preemergence; for Plant response rating, Oilseed Rape: Preemergence, 31 g ai/ha, scale 0 to 100, 0 no effect, 100 complete control
# In short: as §1
# yellow nutsedge = experiment: Test C preemergence; type: in vivo, Cyperus esculentus; settings: for Nutsedge, Yellow plant response rating: preemergence; for Plant response rating, Nutsedge, Yellow: Preemergence, 31 g ai/ha, scale 0 to 100, 0 no effect, 100 complete control
# In short: as §1
# Italian ryegrass [1] = experiment: Test A postemergence; type: in vivo, Lolium multiflorum; settings: 0 to 100 scale where 0 is no effect and 100 is complete control
# In short: as §2
# ragweed [2] = experiment: Test A postemergence; type: in vivo, Ambrosia elatior; settings: 0 to 100 scale where 0 is no effect and 100 is complete control
# In short: as §2
# ragweed [3] = experiment: Test C preemergence; type: in vivo, Ambrosia elatior; settings: for Ragweed plant response rating: preemergence; for Plant response rating, Ragweed: Preemergence, 31 g ai/ha, scale 0 to 100, 0 no effect, 100 complete control
# In short: as §1
# giant foxtail = experiment: Test C preemergence; type: in vivo, Setaria faberii; settings: for Foxtail, Giant plant response rating: preemergence; for Plant response rating, Foxtail, Giant: Preemergence, 31 g ai/ha, scale 0 to 100, 0 no effect, 100 complete control
# In short: as §1
# corn = experiment: Test C preemergence; type: in vivo, Zea mays; settings: for Corn plant response rating: preemergence; for Plant response rating, Corn: Preemergence, 31 g ai/ha, scale 0 to 100, 0 no effect, 100 complete control
# In short: as §1
# blackgrass = experiment: Test C preemergence; type: in vivo, Alopecurus myosuroides; settings: for Blackgrass plant response rating: preemergence; for Plant response rating, Blackgrass: Preemergence, 31 g ai/ha, scale 0 to 100, 0 no effect, 100 complete control
# In short: as §1
# morningglory = experiment: Test C preemergence; type: in vivo, Ipomoea coccinea; settings: for Morningglory plant response rating: preemergence; for Plant response rating, Morningglory: Preemergence, 31 g ai/ha, scale 0 to 100, 0 no effect, 100 complete control
# In short: as §1
# pigweed = experiment: Test C preemergence; type: in vivo, Amaranthus retroflexus; settings: for Pigweed plant response rating: preemergence; for Plant response rating, Pigweed: Preemergence, 31 g ai/ha, scale 0 to 100, 0 no effect, 100 complete control
# In short: as §1
# ragweed [4] = experiment: Test A preemergence; type: in vivo, Ambrosia elatior; settings: for Plant response rating, Ragweed: 125 g ai/ha; for Ragweed plant response rating: 500 g ai/ha
# In short: as §2
# Italian ryegrass [5] = experiment: Test C preemergence; type: in vivo, Lolium multiflorum; settings: for Ryegrass, Italian plant response rating: preemergence; for Plant response rating, Ryegrass, Italian: Preemergence, 31 g ai/ha, scale 0 to 100, 0 no effect, 100 complete control
# In short: as §1
# lambsquarters = experiment: Test C preemergence; type: in vivo, Chenopodium album; settings: for Lambsquarters plant response rating: preemergence; for Plant response rating, Lambsquarters: Preemergence, 31 g ai/ha, scale 0 to 100, 0 no effect, 100 complete control
# In short: as §1
# [6] = 16 g ai/ha, scale 0 to 100 (0 no effect, 100 complete control)
# [7] = 62 g ai/ha, scale 0 (no effect) to 100 (complete control)
# [8] = 125 g ai/ha, scale 0 (no effect) to 100 (complete control)
# [9] = 0 to 100 scale where 0 is no effect and 100 is complete control
# [10] = 8 g ai/ha, scale 0 to 100 (0 no effect, 100 complete control)
compound,measurement,setting,value
CC(C)c1cnn(-c2c(C#N)cccc2Oc2ncc(Cl)cn2)c1 [Compound 85],"Crabgrass, Large plant response rating",large (Lg) crabgrass; [6],65
same,"Crabgrass, Large plant response rating",large (Lg) crabgrass; [7],100
same,"Crabgrass, Large plant response rating",large (Lg) crabgrass; [8],100
same,"Plant response rating, Crabgrass, Large",large (Lg) crabgrass,90
same,Barnyardgrass plant response rating,barnyardgrass; [6],0
same,Barnyardgrass plant response rating,barnyardgrass; [7],75
same,Barnyardgrass plant response rating,barnyardgrass; [8],95
same,"Plant response rating, Barnyardgrass",barnyardgrass,15
same,Velvetleaf plant response rating,velvetleaf; [6],35
same,Velvetleaf plant response rating,velvetleaf; [7],100
same,Velvetleaf plant response rating,velvetleaf; [8],100
same,"Plant response rating, Velvetleaf",velvetleaf,80
same,"Plant response rating, Galium",galium; 125 g ai/ha,90
same,"Plant response rating, Galium",galium; 500 g ai/ha,100
same,Soybean plant response rating,soybean; [6],0
same,Soybean plant response rating,soybean; [7],40
same,Soybean plant response rating,soybean; [8],60
same,"Plant response rating, Soybean",soybean,15
same,Oilseed Rape plant response rating,oilseed rape; [6],0
same,Oilseed Rape plant response rating,oilseed rape; [7],90
same,Oilseed Rape plant response rating,oilseed rape; [8],98
same,"Plant response rating, Oilseed Rape",oilseed rape,40
same,"Nutsedge, Yellow plant response rating",yellow nutsedge; [6],0
same,"Nutsedge, Yellow plant response rating",yellow nutsedge; [7],5
same,"Nutsedge, Yellow plant response rating",yellow nutsedge; [8],20
same,"Plant response rating, Nutsedge, Yellow",yellow nutsedge,0
same,"Plant response rating, Ryegrass, Italian",Italian ryegrass [1]; 125 g ai/ha,60
same,"Plant response rating, Ryegrass, Italian",Italian ryegrass [1]; 500 g ai/ha,100
same,"Plant response rating, Ragweed",ragweed [2]; 125 g ai/ha,50
same,"Plant response rating, Ragweed",ragweed [2]; 500 g ai/ha,60
same,Ragweed plant response rating,ragweed [3]; [6],0
same,Ragweed plant response rating,ragweed [3]; [7],50
same,Ragweed plant response rating,ragweed [3]; [8],65
same,"Plant response rating, Ragweed",ragweed [3],0
same,"Foxtail, Giant plant response rating",giant foxtail; [6],20
same,"Foxtail, Giant plant response rating",giant foxtail; [7],90
same,"Foxtail, Giant plant response rating",giant foxtail; [8],100
same,"Plant response rating, Foxtail, Giant",giant foxtail,35
same,Corn plant response rating,corn; [6],5
same,Corn plant response rating,corn; [7],5
same,Corn plant response rating,corn; [8],45
same,"Plant response rating, Corn",corn,10
same,Blackgrass plant response rating,blackgrass; [6],0
same,Blackgrass plant response rating,blackgrass; [7],10
same,Blackgrass plant response rating,blackgrass; [8],90
same,"Plant response rating, Blackgrass",blackgrass,5
same,Morningglory plant response rating,morningglory; [6],0
same,Morningglory plant response rating,morningglory; [7],0
same,Morningglory plant response rating,morningglory; [8],20
same,"Plant response rating, Morningglory",morningglory,0
same,Pigweed plant response rating,pigweed; [6],50
same,Pigweed plant response rating,pigweed; [7],100
same,Pigweed plant response rating,pigweed; [8],100
same,"Plant response rating, Pigweed",pigweed,40
same,"Plant response rating, Ragweed",ragweed [4]; [9],40
same,Ragweed plant response rating,"ragweed [4]; 0 to 100 scale, 0 no effect, 100 complete control, approx. 10 days",60
same,"Ryegrass, Italian plant response rating",Italian ryegrass [5]; [6],0
same,"Ryegrass, Italian plant response rating",Italian ryegrass [5]; [7],0
same,"Ryegrass, Italian plant response rating",Italian ryegrass [5]; [8],50
same,"Plant response rating, Ryegrass, Italian",Italian ryegrass [5],0
same,Lambsquarters plant response rating,lambsquarters; [6],65
same,Lambsquarters plant response rating,lambsquarters; [7],100
same,Lambsquarters plant response rating,lambsquarters; [8],100
same,"Plant response rating, Lambsquarters",lambsquarters,100
N#Cc1cnn(-c2c(C#N)cccc2Oc2ncc(Br)cn2)c1 [Compound 135],"Crabgrass, Large plant response rating",large (Lg) crabgrass; [10],45
same,"Crabgrass, Large plant response rating",large (Lg) crabgrass; [6],60
same,"Crabgrass, Large plant response rating",large (Lg) crabgrass; [7],100
same,"Plant response rating, Crabgrass, Large",large (Lg) crabgrass,100
same,Barnyardgrass plant response rating,barnyardgrass; [10],0
same,Barnyardgrass plant response rating,barnyardgrass; [6],0
same,Barnyardgrass plant response rating,barnyardgrass; [7],60
same,"Plant response rating, Barnyardgrass",barnyardgrass,15
same,Velvetleaf plant response rating,velvetleaf; [10],5
same,Velvetleaf plant response rating,velvetleaf; [6],40
same,Velvetleaf plant response rating,velvetleaf; [7],85
same,"Plant response rating, Velvetleaf",velvetleaf,45
same,Galium plant response rating,galium; 125 g ai/ha,60
same,"Plant response rating, Galium",galium; 500 g ai/ha,90
same,Soybean plant response rating,soybean; [10],10
same,Soybean plant response rating,soybean; [6],20
same,Soybean plant response rating,soybean; [7],85
same,"Plant response rating, Soybean",soybean,65
same,Oilseed Rape plant response rating,oilseed rape; [10],30
same,Oilseed Rape plant response rating,oilseed rape; [6],55
same,Oilseed Rape plant response rating,oilseed rape; [7],95
same,"Plant response rating, Oilseed Rape",oilseed rape,95
same,"Nutsedge, Yellow plant response rating",yellow nutsedge; [10],0
same,"Nutsedge, Yellow plant response rating",yellow nutsedge; [6],0
same,"Nutsedge, Yellow plant response rating",yellow nutsedge; [7],15
same,"Plant response rating, Nutsedge, Yellow",yellow nutsedge,0
same,"Ryegrass, Italian plant response rating",Italian ryegrass [1]; 125 g ai/ha,20
same,"Plant response rating, Ryegrass, Italian",Italian ryegrass [1]; 500 g ai/ha,70
same,Ragweed plant response rating,ragweed [2]; 125 g ai/ha,60
same,"Plant response rating, Ragweed",ragweed [2]; 500 g ai/ha,100
same,Ragweed plant response rating,ragweed [3]; [10],0
same,Ragweed plant response rating,ragweed [3]; [6],40
same,Ragweed plant response rating,ragweed [3]; [7],65
same,"Plant response rating, Ragweed",ragweed [3],55
same,"Foxtail, Giant plant response rating",giant foxtail; [10],0
same,"Foxtail, Giant plant response rating",giant foxtail; [6],5
same,"Foxtail, Giant plant response rating",giant foxtail; [7],70
same,"Plant response rating, Foxtail, Giant",giant foxtail,70
same,Corn plant response rating,corn; [10],5
same,Corn plant response rating,corn; [6],10
same,Corn plant response rating,corn; [7],30
same,"Plant response rating, Corn",corn,5
same,Blackgrass plant response rating,blackgrass; [10],0
same,Blackgrass plant response rating,blackgrass; [6],0
same,Blackgrass plant response rating,blackgrass; [7],20
same,"Plant response rating, Blackgrass",blackgrass,5
same,Morningglory plant response rating,morningglory; [10],5
same,Morningglory plant response rating,morningglory; [6],50
same,Morningglory plant response rating,morningglory; [7],80
same,"Plant response rating, Morningglory",morningglory,50
same,Pigweed plant response rating,pigweed; [10],50
same,Pigweed plant response rating,pigweed; [6],85
same,Pigweed plant response rating,pigweed; [7],98
same,"Plant response rating, Pigweed",pigweed,80
same,"Plant response rating, Ragweed",ragweed [4]; [9],90
same,Ragweed plant response rating,ragweed [4]; [9],90
same,"Ryegrass, Italian plant response rating",Italian ryegrass [5]; [10],0
same,"Ryegrass, Italian plant response rating",Italian ryegrass [5]; [6],0
same,"Ryegrass, Italian plant response rating",Italian ryegrass [5]; [7],10
same,"Plant response rating, Ryegrass, Italian",Italian ryegrass [5],5
same,Lambsquarters plant response rating,lambsquarters; [6],30
same,Lambsquarters plant response rating,lambsquarters; [7],85
same,"Plant response rating, Lambsquarters",lambsquarters,85
